We go through 27 compounds from patent publication US9212168B2 (priority 2011, dated 2015).

One assay concerns the target HCV genotype 1b replicon. In words: HCV genotype 1b replicon assay (Renilla luciferase readout). The format is cell-based, hepatitis C virus. Conditions: for Genotype 1b: HCV genotype 1b replicon; for EC50: Hepatitis C virus, read-out: Genotype 1b. The source says: Assay 1: HCV Genotype 1b Replicon Assay
The HCV genotype 1b replicon cell line was obtained from Apath LLC (Brooklyn, N.Y.) (APC144; Huh7 cell background). This subgenomic replicon contains the N-terminus of the HCV core protein fused to the neomycin-resistance selectable marker. The EMCV IRES lies downstream and drives expression of humanized Renilla luciferase fused to the non-structural proteins NS3-NS5B. This cell line was used to determine compound potency using the luciferase activity readout as a measurement of compound inhibition of replicon levels.
Cells were grown at 37° C. in a 5% CO2 humidified incubator in DMEM (Invitrogen) with 10% FBS (HyClone), 1×NEAA (Invitrogen), 1× Pen-Strep (Invitrogen), and 500 μg/mL G418 (Invitrogen). On day 1 of the assay, cells were plated at 10,000 cells/well in white 96-well tissue culture plates (Costar) in 200 μL media lacking G418. Four hours later, once the cells have adhered, the media was removed and replaced with media (no G418) containing dose-responses of test compounds. Compounds were initially diluted in DMSO and then diluted another 200× in media to bring the final DMSO concentration down to 0.5%. The cells were incubated with test compounds for 48 hours. At the end of the incubation period, media and compound were removed from the plates and the luciferase activity was determined using Promega Renilla-Glo reagents.
To analyze the data, the luciferase activity was plotted vs. the compound concentration, and EC50 values were determined from a 4-parameter robust fit model with the GraphPad Prism software package (GraphPad Software, Inc., San Diego, Calif.). Results are expressed as the negative decadic logarithm of the EC50 value, pEC50.
Test compounds having a higher pEC50 value in this assay show greater inhibition of HCV genotype 1b replication.

For a further assay, the system named is HCV genotype 1a replicon. Kind of assay: HCV genotype 1a replicon assay (NS3 protease activity readout). The format is cell-based, hepatitis C virus. Particulars: for Genotype 1a: HCV genotype 1a replicon; for EC50: Hepatitis C virus, read-out: Genotype 1a, HCV genotype 1a replicon. In a few lines:
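Genotype 1a subgenomic replicon cells (APC89, Huh7.5) were treated with compound dose-responses in G418-free medium, 0.5% DMSO final, for 48 or 72 hours at 37° C. Lysate NS3/4a protease activity measured with 15 μM FRET substrate, 20 min at 37° C (ex 340/em 509 nm); EC50 by 4-parameter fit.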
Background: In antiviral work, replicon cells carry a viral genome segment that copies itself.

For `COC(=O)NC(C(=O)N1CC(C)CC1c1nc(-c2ccc(-c3ccc(NC(=O)c4ccc(N5CCN(C(=O)C(C)(C)CO)CC5C)nc4)cc3OC(F)(F)F)cc2)c[nH]1)C(C)OC` (stereo not shown) [Example 13-31], on HCV genotype 1b replicon, the “Genotype 1b” value is “D (D represents pEC50>10 (EC50<0.1 nM))”. Besides, the “Genotype 1a” value in the assay on HCV genotype 1a replicon is “D (D represents pEC50>10 (EC50<0.1 nM))”.
As to `COC(=O)N[C@H](C(=O)N1C[C@@H](N(C)C)C[C@H]1c1nc(-c2ccc(-c3ccc(C(=O)Nc4ccc(N5CCN(C(=O)C6CC6(C)C)C[C@H]5C)nc4)cc3)cc2)c[nH]1)C(C)C` (stereo partly shown) [Example 6-5], the EC50 in the assay with HCV genotype 1b replicon is less than 0.1 nM; in the assay with HCV genotype 1a replicon it was 0.1 to 1 nM.
With `CNC(=O)N1C[C@@H](C)N(c2ccc(C(=O)Nc3cc(C(F)(F)F)c(-c4ccc(-c5c[nH]c([C@@H]6C[C@H](C)CN6C(=O)[C@@H](NC(=O)OC)C(C)C)n5)cc4)cc3F)cn2)C[C@@H]1C` [Example 1-8], the “Genotype 1b” value at HCV genotype 1b replicon is “D (D represents pEC50>10 (EC50<0.1 nM))”. Further, the “Genotype 1a” value with HCV genotype 1a replicon is “D (D represents pEC50>10 (EC50<0.1 nM))”.
For `COC(=O)N[C@H](C(=O)N1C[C@@H](OC)C[C@H]1c1nc(-c2ccc(-c3cc(Cl)c(NC(=O)c4ccc(N5C[C@H](C)N(C(=O)[C@]6(C)CCCN6C(=O)OC)C[C@H]5C)nc4)cc3OC(F)(F)F)cc2)c[nH]1)C1CCOCC1` [Example 28-18], the “Genotype 1b” value on HCV genotype 1b replicon is recorded as “D (D represents pEC50>10 (EC50<0.1 nM))”. Further, the “Genotype 1a” value in the assay on HCV genotype 1a replicon is recorded as “D (D represents pEC50>10 (EC50<0.1 nM))”.
For the compound `COC(=O)N[C@H](C(=O)N1C[C@@H](C(N)=O)C[C@H]1c1nc(-c2ccc(-c3cc(Cl)c(NC(=O)c4ccc(N5CCN(C(=O)C(C)(C)CO)C[C@H]5C)nc4)cc3OC(F)(F)F)cc2)c[nH]1)C(C)C` [Example 15-3], the EC50 with HCV genotype 1b replicon and in the assay on HCV genotype 1a replicon was less than 0.1 nM in each case.
Consider `COC(=O)N[C@H](C(=O)N1C[C@@H](C)C[C@H]1c1nc(-c2ccc(-c3ccc(C(=O)Nc4ccc(N5C[C@H](C)N(C(=O)C6CC6C)C[C@H]5C)nc4)cc3OC(F)(F)F)cc2)c[nH]1)C(C)C` (stereo partly shown) [Example 4-17], for which, at HCV genotype 1b replicon, the “Genotype 1b” value is recorded as “D (D represents pEC50>10 (EC50<0.1 nM))”. Moreover, the “Genotype 1a” value with HCV genotype 1a replicon was “C (C represents pEC50 between and 9 and about 10, (EC50 between 1 nM and 0.1 nM))”.
On to `COC(=O)N[C@H](C(=O)N1C[C@@H](OC)C[C@H]1c1nc(-c2ccc(-c3cc(F)c(NC(=O)c4ccc(N5CCN(C(=O)C(C)(C)C)C[C@H]5C)nc4)cc3OC(F)(F)F)cc2)c[nH]1)C1CCOCC1` [Example 28-1], for which the “Genotype 1b” value on HCV genotype 1b replicon was “D (D represents pEC50>10 (EC50<0.1 nM))”. The “Genotype 1a” value with HCV genotype 1a replicon is recorded as “D (D represents pEC50>10 (EC50<0.1 nM))”.
As for `CCN(CC)C(C(=O)N1C[C@@H](C)C[C@H]1c1nc(-c2ccc(-c3cc(Cl)c(NC(=O)c4ccc(N5C[C@H](C)N(C(=O)NC)C[C@H]5C)nc4)cc3OC(F)(F)F)cc2)c[nH]1)c1ccccc1` (stereo partly shown) [Example 7-12], the EC50 with HCV genotype 1a replicon is less than 0.1 nM.
Same read-out and setting: the result for `[2H]C([2H])([2H])C1(C([2H])([2H])[2H])CC1C(=O)N1CCN(c2ccc(NC(=O)c3ccc(-c4ccc(-c5nc([C@@H]6C[C@H](N(C)C)CN6C(=O)[C@@H](NC(=O)OC)C(C)C)[nH]c5Cl)cc4)c(OC(F)(F)F)c3)cn2)[C@H](C)C1` (stereo partly shown) [Example 6-17] reads less than 0.1 nM.
Consider `COC(=O)N[C@H](C(=O)N1C[C@@H](C)C[C@H]1c1nc(-c2ccc(-c3cc(Cl)c(NC(=O)c4ccc(N5CCN(C(C)=O)C[C@H]5C)nc4)cc3OC(F)(F)F)cc2)c[nH]1)C(C)C` [Example 1-66], for which the “Genotype 1a” value with HCV genotype 1a replicon is “C (C represents pEC50 between and 9 and about 10, (EC50 between 1 nM and 0.1 nM))”.
The same measure, in the same setting: the same measure for `COC(=O)N[C@H](C(=O)N1CC(C)(C)C[C@H]1c1nc(-c2ccc(-c3cc(F)c(NC(=O)c4ccc(N5CCN(C(=O)[C@]6(C)CCCN6C(=O)[C@@H](NC(=O)OC)C(C)C)C[C@H]5C)nc4)cc3C(F)(F)F)cc2)c[nH]1)C(C)C` [Example 3-2]: “D (D represents pEC50>10 (EC50<0.1 nM))”.
For the compound `COCC(=O)N1CCC[C@@]1(C)C(=O)N1CCN(c2ccc(NC(=O)c3ccc(-c4ccc(-c5c[nH]c([C@@H]6CC(C)(C)CN6C(=O)[C@@H](NC(=O)OC)C(C)C)n5)cc4)c(OC(F)(F)F)c3)cn2)[C@H](C)C1` [Example 6-7], in the assay with HCV genotype 1a replicon, the EC50 is less than 0.1 nM.
Turning to `COC(=O)N[C@H](C(=O)N1C[C@@H](N(C)C)C[C@H]1c1nc(-c2ccc(-c3ccc(C(=O)Nc4ccc(N5CCN(C(=O)[C@]6(C)CCCN6C(=O)[C@@H](NC(=O)OC)C(C)C)C[C@H]5C)nc4)cc3)cc2)c[nH]1)C(C)C` [Example 6-3], the EC50 with HCV genotype 1a replicon fell in the range of 0.1 to 1 nM.
For `COC(=O)N[C@H](C(=O)N1C[C@@H](C)C[C@H]1c1nc(-c2ccc(-c3cc(F)c(NC(=O)c4ccc(N5CCN(C(=O)C(C)(C)CO)C[C@H]5C)nc4)cc3OC(F)(F)F)cc2)c[nH]1)C(C)(C)O` [Example 13-23], in the assay on HCV genotype 1a replicon, the EC50 was less than 0.1 nM.
On the same count and under the same terms, the result for `COC(=O)N[C@H](C(=O)N1C[C@@H](C)C[C@H]1c1nc(-c2ccc(-c3cc(F)c(NC(=O)c4ccc(N5CCN(C(=O)C(C)(C)CO)C[C@H]5C)nc4)cc3OC(F)(F)F)cc2)c[nH]1)[C@H](C)OC` [Example 13-25] reads 0.1 to 1 nM.
Take `COC(=O)N[C@H](C(=O)N1C[C@@H](C)C[C@H]1c1nc(-c2ccc(-c3cc(Cl)c(NC(=O)c4ccc(N5CCN(C(=O)[C@H]6CCCN6C(C)=O)C[C@H]5C)nc4)cc3OC(F)(F)F)cc2)c[nH]1)C(C)C` [Example 1-47]: the “Genotype 1a” value with HCV genotype 1a replicon is on record as “D (D represents pEC50>10 (EC50<0.1 nM))”.
On to `COC(=O)NC(C(=O)N1C[C@@H](C)C[C@H]1c1nc(-c2ccc(-c3cc(Cl)c(C(=O)Nc4ccc(N5CCN(C(=O)C(C)(C)C)C[C@H]5C)nc4)cc3OC(F)(F)F)cc2)c[nH]1)C1C[C@@H](C)O[C@@H](C)C1` (stereo partly shown) [Example 23-2], for which the “Genotype 1a” value in the assay on HCV genotype 1a replicon was “D (D represents pEC50>10 (EC50<0.1 nM))”.
On the same count and under the same terms, the same measure for `CC[C@H](C)C(=O)N1CCN(c2ccc(C(=O)Nc3cc(OC(F)(F)F)c(-c4ccc(-c5c[nH]c([C@@H]6C[C@H](C)CN6C(=O)[C@@H](NC(=O)OC)C(C)C)n5)cc4)cc3Cl)cn2)[C@H](C)C1` [Example 1-69]: “D (D represents pEC50>10 (EC50<0.1 nM))”.
Consider `COC(=O)N[C@H](C(=O)N1C[C@@H](N(C)CCN)C[C@H]1c1nc(-c2ccc(-c3cc(Cl)c(NC(=O)c4ccc(N5CCN(C(=O)C(C)(C)C)C[C@H]5C)nc4)cc3OC(F)(F)F)cc2)c[nH]1)C(C)C` [Example 15-8], for which the EC50 in the assay on HCV genotype 1a replicon fell in the range of 0.1 to 1 nM.
For the compound `COC(=O)N[C@H](C(=O)N1C[C@@H](OC)C[C@H]1c1nc(-c2ccc(-c3ccc(C(=O)Nc4ccc(N5CCN(C(=O)[C@H]6CC6(C)C)C[C@H]5C)nc4)cc3)cc2)c[nH]1)C1CCOCC1` [Example 22-15], in the assay with HCV genotype 1a replicon, the “Genotype 1a” value was “D (D represents pEC50>10 (EC50<0.1 nM))”.
With `CCCC(=O)N1CCN(c2ccc(C(=O)Nc3cc(OC(F)(F)F)c(-c4ccc(-c5c[nH]c([C@@H]6C[C@H](C)CN6C(=O)[C@@H](NC(=O)OC)C(C)C)n5)cc4)cc3Cl)cn2)[C@H](C)C1` [Example 1-68], the “Genotype 1a” value in the assay on HCV genotype 1a replicon is “C (C represents pEC50 between and 9 and about 10, (EC50 between 1 nM and 0.1 nM))”.
Consider `COC(=O)NC(C(=O)N1C[C@@H](C)C[C@H]1c1nc(-c2ccc(-c3c(F)cc(NC(=O)c4ccc(N5CCN(C(=O)C(C)(C)C)C[C@H]5C)nc4)cc3F)cc2)c[nH]1)C1CCS(=O)(=O)CC1` (stereo partly shown) [Example 21-2], for which the EC50 in the assay with HCV genotype 1a replicon was in the range of 10 to 1000 nM.
On the same count and under the same terms, the same measure for `COC(=O)N[C@H](C(=O)N1C[C@@H](C)C[C@H]1c1nc(-c2ccc(-c3cc(Cl)c(NC(=O)c4ccc(N5CCN(C(=O)C(C)(C)N6CCOCC6)C[C@H]5C)nc4)cc3OC(F)(F)F)cc2)c[nH]1)C(C)C` [Example 12-26]: less than 0.1 nM.
`COC(=O)N[C@H](C(=O)N1C[C@@H](C)C[C@H]1c1nc(-c2ccc(-c3cc(Cl)c(NC(=O)c4ccc(N5CCN(C(=O)C6CCC6C)C[C@H]5C)nc4)cc3OC(F)(F)F)cc2)c[nH]1)C(C)C` (stereo partly shown) [Example 1-91]: the “Genotype 1a” value in the assay with HCV genotype 1a replicon is “D (D represents pEC50>10 (EC50<0.1 nM))”.
On to `COC(=O)N[C@H](C(=O)N1C[C@@H](S(C)(=O)=O)C[C@H]1c1nc(-c2ccc(-c3ccc(C(=O)Nc4ccc(N5CCN(C(=O)C(C)(C)C)C[C@H]5C)nc4)cc3OC(F)(F)F)cc2)c[nH]1)C(C)C` [Example 6-22], for which, in the assay with HCV genotype 1a replicon, the EC50 lay in the range of 1 to 10 nM.
In the case of `COC(=O)N[C@H](C(=O)N1C[C@@H](OC)C[C@H]1c1nc(-c2ccc(-c3cc(Cl)c(NC(=O)c4ccc(N5CCN(C(=O)NC(C)(C)C)C[C@H]5C)nc4)cc3OC(F)(F)F)cc2)c[nH]1)C1CCOCC1` [Example 28-12], the “Genotype 1a” value with HCV genotype 1a replicon is given as “D (D represents pEC50>10 (EC50<0.1 nM))”.
Regarding `COC(=O)N[C@H](C(=O)N1[C@@H](C)CC[C@H]1c1nc(-c2ccc(-c3ccc(C(=O)Nc4ccc(N5CCN(C(=O)C(C)(C)C)C[C@H]5C)nc4)cc3OC(F)(F)F)cc2)c(Cl)[nH]1)C(C)C` [Example 18-2], the “Genotype 1a” value in the assay with HCV genotype 1a replicon is “C (C represents pEC50 between and 9 and about 10, (EC50 between 1 nM and 0.1 nM))”.
